Reference: ChEMBL document CHEMBL5150069, “Solid-Phase Synthesis of Cereblon-Recruiting Selective Histone Deacetylase 6 Degraders (HDAC6 PROTACs) with Antileukemic Activity” (J Med Chem, 2022)
The source made the active and inactive calls. The rule behind the calls is not given here.

What was measured:
[1] = target: T1, Protein deacetylase HDAC6 (Homo sapiens) (UniProt Q9UBN7); assay: Induction of HDAC6 degradation in human HL-60 cells at 0.1 to 10 uM after 6 hrs by Western blot analysis; format: cell-based; details: dose 0.1-10 µM
T1 sequence (whole entry): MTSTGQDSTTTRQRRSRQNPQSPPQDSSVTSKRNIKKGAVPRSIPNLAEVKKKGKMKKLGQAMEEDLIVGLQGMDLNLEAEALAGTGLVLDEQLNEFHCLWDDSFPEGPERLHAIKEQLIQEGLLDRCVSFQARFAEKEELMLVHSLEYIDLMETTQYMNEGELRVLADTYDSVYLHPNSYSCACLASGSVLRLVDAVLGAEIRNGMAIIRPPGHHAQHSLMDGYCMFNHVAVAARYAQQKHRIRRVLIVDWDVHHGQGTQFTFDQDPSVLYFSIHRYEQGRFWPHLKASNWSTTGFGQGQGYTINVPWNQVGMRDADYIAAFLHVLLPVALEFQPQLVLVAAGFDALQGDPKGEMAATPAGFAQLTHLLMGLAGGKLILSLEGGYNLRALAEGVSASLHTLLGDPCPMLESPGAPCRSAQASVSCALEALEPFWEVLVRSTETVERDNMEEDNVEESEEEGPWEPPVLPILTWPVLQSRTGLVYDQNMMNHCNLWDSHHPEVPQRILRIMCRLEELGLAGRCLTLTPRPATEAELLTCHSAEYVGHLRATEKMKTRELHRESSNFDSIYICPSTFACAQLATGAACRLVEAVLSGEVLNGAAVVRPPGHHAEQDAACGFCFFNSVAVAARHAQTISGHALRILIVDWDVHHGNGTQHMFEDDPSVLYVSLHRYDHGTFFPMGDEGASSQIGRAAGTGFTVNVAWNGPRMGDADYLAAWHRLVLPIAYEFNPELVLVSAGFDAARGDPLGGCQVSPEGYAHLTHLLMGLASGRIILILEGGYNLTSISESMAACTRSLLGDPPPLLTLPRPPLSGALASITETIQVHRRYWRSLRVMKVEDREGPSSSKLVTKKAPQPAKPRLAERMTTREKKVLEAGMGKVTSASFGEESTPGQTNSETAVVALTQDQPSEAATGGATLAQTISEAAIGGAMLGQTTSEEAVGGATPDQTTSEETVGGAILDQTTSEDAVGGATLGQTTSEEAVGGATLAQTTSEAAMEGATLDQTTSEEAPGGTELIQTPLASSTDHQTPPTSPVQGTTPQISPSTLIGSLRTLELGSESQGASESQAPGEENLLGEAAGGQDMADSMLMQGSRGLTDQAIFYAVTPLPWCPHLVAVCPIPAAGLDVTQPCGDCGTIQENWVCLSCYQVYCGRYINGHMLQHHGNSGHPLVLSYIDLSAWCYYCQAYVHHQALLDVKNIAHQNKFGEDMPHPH

[2] = target: T2, Protein deacetylase HDAC6 (Homo sapiens, UniProt Q9UBN7); assay: Induction of HDAC6 degradation in human HL-60 cells assessed as hyperacetylation of alpha-tubulin after 6 hrs by Western immunoassay; format: cell-based
T2 sequence (Q9UBN7 whole entry): T1 sequence (whole entry)

[3] = target: T2, Protein deacetylase HDAC6; assay: Induction of HDAC6 degradation in human HL-60 cells after 6 hrs by Western immunoassay; format: cell-based
[4] = target: T2, Protein deacetylase HDAC6; assay: Inhibition of recombinant full length N-terminal GST-tagged human HDAC6 (1 to 1215 residues) using Z-Lys(Ac)-AMC as substrate preincubated for 90 mins followed by trypsin addition and measured after 30 mins by fluorescence based microplate reader analysis
[5] = target: T1, Protein deacetylase HDAC6 (Homo sapiens); assay: Induction of HDAC6 degradation in human HL-60 cells assessed as hyperacetylation of alpha-tubulin at 0.1 to 10 uM after 6 hrs by Western blot analysis; format: cell-based; details: dose 0.1-10 µM
[6] = target: T1, Protein deacetylase HDAC6 (Homo sapiens); assay: Induction of HDAC6 degradation in human HL-60 cells assessed as maximum degradation after 6 hrs by Western immunoassay; format: cell-based
[7] = target: T1, Protein deacetylase HDAC6 (Homo sapiens); assay: Induction of HDAC6 degradation in human U-266 cells assessed as hyperacetylation of alpha-tubulin at 100 to 1000 nM incubated for 24 hrs by Western blot analysis; format: cell-based; details: dose 100-1000 nM
[8] = target: T1, Protein deacetylase HDAC6 (Homo sapiens); assay: Induction of HDAC6 degradation in human U-266 cells at 100 to 1000 nM incubated for 24 hrs by Western blot analysis; format: cell-based; details: dose 100-1000 nM
Histone deacetylase 1 [9] = target: T3, Histone deacetylase 1 (Homo sapiens, UniProt Q13547); assay: Inhibition of recombinant full length C-terminal His/Flag-tagged human HDAC1 (1 to 482 residues) using Z-Lys(Ac)-AMC as substrate preincubated for 90 mins followed by trypsin addition and measured after 30 mins by fluorescence based microplate reader analysis
T3 sequence (Q13547 whole entry, the tested form may be a part): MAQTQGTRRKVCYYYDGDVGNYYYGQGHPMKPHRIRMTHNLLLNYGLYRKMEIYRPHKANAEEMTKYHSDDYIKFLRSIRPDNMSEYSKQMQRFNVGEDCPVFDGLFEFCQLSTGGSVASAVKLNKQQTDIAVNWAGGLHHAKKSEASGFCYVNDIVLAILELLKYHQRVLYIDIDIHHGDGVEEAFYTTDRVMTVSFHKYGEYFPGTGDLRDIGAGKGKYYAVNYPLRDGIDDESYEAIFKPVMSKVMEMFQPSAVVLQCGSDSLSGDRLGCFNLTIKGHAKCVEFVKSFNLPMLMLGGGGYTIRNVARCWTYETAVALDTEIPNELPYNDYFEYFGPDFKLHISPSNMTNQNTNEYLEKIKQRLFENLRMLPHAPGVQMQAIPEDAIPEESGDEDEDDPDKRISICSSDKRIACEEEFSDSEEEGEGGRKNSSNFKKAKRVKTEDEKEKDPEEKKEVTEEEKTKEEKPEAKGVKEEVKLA

[10] = target: T1, Protein deacetylase HDAC6 (Homo sapiens); assay: Induction of Hitbit-fused HDAC6 degradation in human K562 cells at 1 uM after 5.5 to 7.5 hrs by NanoGlo HiBit lytic assay; format: cell-based; details: time 5.5-7.5 hrs
MOLM-13 [11] = assay: Induction of apoptosis in human MOLM-13 cells after 48 hrs by Annexin-V and PI staining based flow cytometry assay; format: functional, cell-based; details: dose 8-24 µM, DDE = dose-dependent effect
MOLM-13 [12] = assay: Induction of cell cycle arrest in human MOLM-13 cells assessed as increase in sub-G1 phase population at 24 uM incubated for 48 hrs by PI staining based flow cytometry analysis (reference value: […]); format: functional
[13] = target: T1, Protein deacetylase HDAC6 (Homo sapiens); assay: Induction of HDAC6 degradation in human HL-60 cells at 100 nM after 6 hrs by fluorescence microscopy analysis; format: cell-based
MOLM-13 [14] = assay: Induction of cell cycle arrest in human MOLM-13 cells assessed as reduction in G2/M phase population incubated for 48 hrs by PI staining based flow cytometry analysis; format: functional; details: dose 8-24 µM, DDE = dose-dependent effect
MOLM-13 [15] = assay: Induction of cell cycle arrest in human MOLM-13 cells assessed as increase in sub-G1 phase population at 8 uM incubated for 48 hrs by PI staining based flow cytometry analysis (reference value: […]); format: functional
MOLM-13 [16] = assay: Induction of cell cycle arrest in human MOLM-13 cells assessed as increase in sub-G1 phase population incubated for 48 hrs by PI staining based flow cytometry analysis; format: functional; details: dose 8-24 µM, DDE = dose-dependent effect
[17] = target: T1, Protein deacetylase HDAC6 (Homo sapiens); assay: Induction of HDAC6 degradation in human HL-60 cells assessed as hyperacetylation of histone H3 at 1 uM after 24 hrs; format: cell-based
MOLM-13 [18] = assay: Cytotoxicity against human MOLM-13 cells assessed as reduction in cell viability incubated for 72 hrs by ATP based Celltiter-glo luminescent assay; format: functional; details: MOLM-13, 72 h
Histone deacetylase 1 [19] = target: T3, Histone deacetylase 1; assay: Induction of HDAC1 degradation in human HL-60 cells assessed as hyperacetylation of histone H3 at 0.1 to 10 uM after 6 hrs by Western blot analysis; format: cell-based; details: dose 0.1-10 µM
MOLM-13 [20] = assay: Induction of cell cycle arrest in human MOLM-13 cells assessed as increase in sub-G1 phase population at 16 uM incubated for 48 hrs by PI staining based flow cytometry analysis (reference value: […]); format: functional
[21] = target: T1, Protein deacetylase HDAC6 (Homo sapiens); assay: Induction of HDAC6 degradation in human HL-60 cells at 1 uM after 3 to 6 hrs by fluorescence microscopy analysis; format: cell-based; details: time 3-6 hrs
[22] = target: T1, Protein deacetylase HDAC6 (Homo sapiens); assay: Induction of HDAC6 degradation in human HL-60 cells at 100 nM after 3 hrs by fluorescence microscopy analysis; format: cell-based

How did the Activity [1] turn out when `Cc1nc2cc(NC(=O)CCCCCCCNC(=O)COc3cccc4c3C(=O)N(C3CCC(=O)NC3=O)C4=O)ccc2n1Cc1ccc(C(=O)NO)cc1F` (stereo not drawn) was run?
Its Activity is “Active”.

And the EC50 [2]?
The EC50 was 5.45 µM.

And the DC50 [3]?
The DC50 was 0.0194 µM.

And the IC50 [4]?
The IC50 was 0.647 µM.

What about the Activity [5] of the same molecule?
The Activity was “Active”.

What about the Emax [6] of the same molecule?
Its Emax is 92.8%.

And the Activity [7]?
Its Activity is “Active”.

What about the Activity [8] of the same molecule?
The Activity was “Active”.

What about the IC50 (Histone deacetylase 1 [9]) of the same molecule?
The IC50 was 0.647 µM.

What about the Activity [10] of the same molecule?
The Activity was “Active”.

What does the source list for `O=C(CCCCCCNC(=O)c1ccc(NC(=O)CCOCCOCCOCCOCCNC(=O)COc2cccc3c2C(=O)N(C2CCC(=O)NC2=O)C3=O)cc1)NO` (stereo not drawn)?
IC50 [4]: 0.0208 µM; IC50 (Histone deacetylase 1 [9]): 0.208 µM

With `O=C(CCCCCCNC(=O)c1ccc(NC(=O)CCCCCCCNC(=O)COc2cccc3c2C(=O)N(C2CCC(=O)NC2=O)C3=O)cc1)NO` (stereo not drawn) as the molecule, how does the Activity [1] read?
Its Activity is “Active”.

And the Activity (MOLM-13 [11])?
Its Activity is “Dde”.

And the Activity (MOLM-13 [12])?
The Activity was 13.4%.

What about the Activity [13] of the same molecule?
The Activity was “Active”.

And the Activity (MOLM-13 [14])?
Its Activity is “Dde”.

And the Activity (MOLM-13 [15])?
The Activity was 7.5%.

What about the Activity (MOLM-13 [16]) of the same molecule?
Its Activity is “Dde”.

What about the Activity [17] of the same molecule?
Its Activity is “Active”.

What about the IC50 (MOLM-13 [18]) of the same molecule?
The IC50 was 17.4 µM.

And the Activity (Histone deacetylase 1 [19])?
Its Activity is “Active”.

What about the Activity [5] of the same molecule?
The Activity was “Active”.

And the Emax [6]?
The Emax was 84.5%.

What about the Activity [7] of the same molecule?
The Activity was “Active”.

What about the Activity (MOLM-13 [20]) of the same molecule?
Its Activity is 9.9%.

What about the Activity [8] of the same molecule?
The Activity was “Active”.

What about the Activity [21] of the same molecule?
Its Activity is “Active”.

What about the Activity [22] of the same molecule?
The Activity was “Active”.

And the Activity [10]?
The Activity was “Active”.

What does the source list for `O=C(CCCCCCNC(=O)c1ccc(NC(=O)COCCNC(=O)COc2cccc3c2C(=O)N(C2CCC(=O)NC2=O)C3=O)cc1)NO` (stereo not drawn)?
IC50 [4]: 0.012 µM; IC50 (Histone deacetylase 1 [9]): 0.155 µM

For `Cc1nc2cc(NC(=O)CCOCCOCCOCCOCCNC(=O)CNc3cccc4c3C(=O)N(C3CCC(=O)NC3=O)C4=O)ccc2n1Cc1ccc(C(=O)NO)cc1F` (stereo not drawn), which IC50 [4] is on record?
The IC50 was 1.42 µM.

And the IC50 (Histone deacetylase 1 [9])?
Its IC50 is 1.42 µM.

With `O=C(CCCCCCNC(=O)c1ccc(NC(=O)COCCOCCNC(=O)COc2cccc3c2C(=O)N(C2CCC(=O)NC2=O)C3=O)cc1)NO` (stereo not drawn) as the molecule, how does the Activity [1] read?
The Activity was “Active”.

Which IC50 [4] does the source give for `O=C(CCCCCCNC(=O)c1ccc(NC(=O)CCOCCOCCOCCOCCNC(=O)CNc2cccc3c2C(=O)N(C2CCC(=O)NC2=O)C3=O)cc1)NO` (stereo not drawn) here?
The IC50 was 0.015 µM.

And the IC50 (Histone deacetylase 1 [9])?
Its IC50 is 0.186 µM.

Which results are given for `Cc1nc2cc(NC(=O)CCOCCOCCOCCOCCNC(=O)COc3cccc4c3C(=O)N(C3CCC(=O)NC3=O)C4=O)ccc2n1Cc1ccc(C(=O)NO)cc1F` (stereo not drawn)?
IC50 [4]: 1.49 µM; IC50 (Histone deacetylase 1 [9]): 1.49 µM

Which IC50 [4] does the source give for `Cc1nc2cc(NC(=O)CCOCCOCCOCCNC(=O)COc3cccc4c3C(=O)N(C3CCC(=O)NC3=O)C4=O)ccc2n1Cc1ccc(C(=O)NO)cc1F` (stereo not drawn) here?
The IC50 was 1.31 µM.

What about the IC50 (Histone deacetylase 1 [9]) of the same molecule?
Its IC50 is 1.31 µM.

Which IC50 [4] does the source give for `O=C(CCCCCCNC(=O)c1ccc(NC(=O)CCOCCOCCOCCNC(=O)COc2cccc3c2C(=O)N(C2CCC(=O)NC2=O)C3=O)cc1)NO` (stereo not drawn) here?
Its IC50 is 0.017 µM.

What about the IC50 (Histone deacetylase 1 [9]) of the same molecule?
The IC50 was 0.161 µM.
